Patent US10004718B2, “Erythropoietin expression promoter” (TOHOKU UNIVERSITY, priority 2012, dated 2018)

Tests used:
[1] = system: mouse erythropoietin gene promoter; experiment: Luciferase reporter assay of erythropoietin gene promoter in Hep3B cells; type: cell-based; conditions: for effect on erythropoietin gene promoter transcriptional activity compared with HIF activator FG-4592: compound 10 μM vs FG-4592 10 μM, 20% O2; for transcription level of the erythropoietin gene promoter: compound 10 μM, 20% O2, 48 hours, vs 20% O2/DMSO
Procedure: A plasmid vector HE-mPro-luc for luciferase assay on the promoter activity of the 5′ upstream transcriptional regulatory region of the mouse erythropoietin gene was prepared by cleaving, with restriction enzymes XbaI and SacI, a region having a length from −571 to +53 bp starting at the translation initiation site of exon 1 of the mouse erythropoietin gene, and inserting this region to a luciferase reporter vector pXP2 (Nordeen S K. BioTechniques. 6: […], 1988).
The Hep3B cells were adjusted to 10×10^4 cells/well in a 24-well cell culture plate and subcultured. Under microscopy, the Hep3B cells that reached a cell density of 70 to 80% were transfected with the plasmid DNA for luciferase reporter assay. The composition of a solution for transfection was prepared by mixing 2 μg of HE-mPro-luc, 50 ng of pRh-TK (manufactured by Promega K.K.), and 2 μl of Lipofectamine 2000 (manufactured by Invitrogen Corp.) with 100 μl of OptiMEM-I (manufactured by Life Technologies, Inc./GIBCO) per well, followed by incubation at room temperature for 20 minutes. The solution was added to the Hep3B cells in the 24-well cell culture plate preincubated in 0.5 ml of serum-free OptiMEM-I medium, and then incubated for 4 hours without serum and antibiotics under conditions of 37° C. and 5% CO2/20% O2. Then, the medium was replaced with RPMI1640 common medium 1 supplemented with each of 5 types of compounds (compounds #2, 4, 5, 18, and 21) at a concentration of 10 μM, followed by further incubation for 48 hours under conditions of 37° C. and 5% CO2/20% O2. Then, the medium was replaced with 0.5 ml of serum-free PBS, and the cells were gently washed, followed by the removal of PBS by suction. This operation was carried out twice. Then, 100 μl of passive lysis buffer (manufactured by Promega K.K.) was added thereto, and the cells were lysed by mixing at room temperature for 20 minutes. Hep3B cells cultured in the absence of the compound (DMSO added [1%]) (“20% O2/DMSO” of FIG. 3) were used as a negative control. Hep3B cells cultured in the presence of an HIF activator (FG-4592 [10 μM]) (“20% O2/FG4592” of FIG. 3) and Hep3B cells cultured under hypoxia (1% O2) conditions and in the absence of the compound (DMSO added [1%]) (“1% O2/DMSO” of FIG. 3) were used as positive controls.
Dual Luciferase Reporter Assay System (manufactured by Promega K.K.) was used in the luciferase reporter assay. The amounts of firefly and Renilla luciferases were measured using a luminometer Lumat LB9507 (manufactured by BERTHOLD TECHNOLOGIES GmbH & Co. KG). The amount of Fire fly luciferase was divided by the amount of Renilla luciferase to calculate the transcriptional activity of the erythropoietin gene.

HIF-α = HIF-α concentration in Hep3B cells (Total HIF-1α Cell-Based ELISA); parameters: species or system human; conditions: compound 10 μM, 20% O2, 24 hours
Procedure: The Hep3B cells were seeded at 1×10^4 cells/well to a 24-well cell culture plate and then cultured under normal oxygen (20% O2) for 24 hours. Each of 3 types of compounds (compounds #4, 21, and 35) was mixed at a concentration of 10 μM into RPMI1640 common medium 1. After further culture under normal oxygen (20% O2) for 24 hours, the concentration of HIF-α produced in the medium was measured using Total HIF-1 α Cell-Based ELISA Kit (manufactured by R&D Systems, Inc.). Hep3B cells cultured in the absence of the compound (DMSO added [1%]) (“Control” of FIG. 5) were used as a negative control. Hep3B cells cultured in the presence of HIF activators (FG-4592 [10 μM], DMOG [10 μM], and ciclopirox[10 μM]) (“FG”, “DMOG”, and “Ciclo”, respectively, of FIG. 5) were used as positive controls.

[2] = Plasma concentration in mice after tail vein administration (LC/MS/MS); type: in vivo, mouse
Procedure: Compound #4 was administered alone to the tail veins of 3 mice (C57BL/6N 8 W, male, 21-25 g). 30 minutes, 1 hour, and 6 hours after the administration, each mouse was cervically dislocated, and 500 μl of blood was collected from the heart. Then, an anticoagulant (10 μl of heparin) was added thereto, and the resulting blood was centrifuged (12000 rpm×20 min, 4° C.) to isolate plasma. DMSO (57 μl) was administered alone to the tail veins of mice, which were in turn used as controls.
The plasma concentration of the compound #4 was quantified using LC/MS/MS constituted by TSQ Quantum Ultra (manufactured by Thermo Fisher Scientific Inc.) and NANOSPACE SI-2 (manufactured by Shiseido Co., Ltd.). Conditions for the selected reaction monitoring (SRM) method of the compound #4 or 2-methyl-5-([2-naphthylamino]carbonyl)-3-thienyl)acetic acid used as an internal standard (hereinafter, referred to as an “internal standard compound”) are “m/z 311.1>116.0 (collision energy, CE=24)” and “m/z 324.1>280.0 (CE=14)”. “Xbridge C18 (150 mm×2.1 mm i.d., 3.5 μm particle size)” was selected as an analytical column. […] The compound #4 and the internal standard compound were detected 8.51 and 9.00 minutes, respectively (upper column of FIG. 10). […] The sample (1 μl) was introduced through a filter to LC/MS/MS to quantify the plasma concentration (μg/ml) of the compound #4 (lower column of FIG. 10).

SMILES | effect on erythropoietin gene promoter transcriptional activity compared with HIF activator FG-4592 [1] | transcription level of the erythropoietin gene promoter [1] | HIF-α concentration in the Hep3B cells (HIF-α) | time after administration up to which the compound is detected in plasma [2] | detection in plasma ([2]; 30 minutes after the administration)
O=C(CC(C(=O)O)c1c[nH]c2ccccc12)c1ccc(F)cc1 (stereo not shown) [compound #4, 4-(4-Fluorophenyl)-2-(1H-indol-3-yl)-4-oxo-butanoic acid] | superior to the effect of the existing HIF activator (FG-4592) | increase the transcription level | increase the HIF-α concentration | at least 6 hours | detected at a high level
O=C(CC(C(=O)O)c1c[nH]c2ccccc12)c1ccc(F)cc1F (stereo not shown) [compound #5, 4-(2,4-Difluorophenyl)-2-(1H-indol-3-yl)-4-oxo-butanoic acid] | superior to the effect of the existing HIF activator (FG-4592) | increase the transcription level |  |  | 
O=C(O)C(CCCC(F)(F)C(F)(F)F)c1c[nH]c2ccccc12 (stereo not drawn) [compound #21, α-(4,4,5,5,5-Pentafluoro-1-pentyl)-3-indoleacetic acid] | superior to the effect of the existing HIF activator (FG-4592) | increase the transcription level | increase the HIF-α concentration |  | 
